Test results: ChEMBL document CHEMBL1201862, “PubChem BioAssay data set” (2004)
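How tested: cells in 96-well plates exposed to compound for 48 hours at five concentrations. Here, GI50 denotes the concentration required for 50% inhibition of growth.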 Active and inactive are the calls of the source. No stated cut-off is given here; in the data, active = GI50 up to about 1.1 µM and inactive = higher.

Assays:
Assay in all cases: NCI anticancer screen, dose series, 48 h
[1] = system: 786-0
[2] = system: A498
[3] = system: A549
[4] = system: ACHN
[5] = system: BT-549
[6] = system: CAKI-1
[7] = system: CCRF-CEM
[8] = system: COLO 205
[9] = system: DU-145
[10] = system: EKVX
[11] = system: HCC 2998
[12] = system: HCT-116
[13] = system: HCT-15
[14] = system: HL-60
[15] = system: HOP-62
[16] = system: HOP-92
[17] = system: HT-29
[18] = system: Hs-578T
[19] = system: IGROV-1
[20] = system: K562
[21] = system: KM12
[22] = system: LOX IMVI
[23] = system: M14
[24] = system: MCF7
[25] = system: MDA-MB-231
[26] = system: MDA-MB-435
[27] = system: MDA-N
[28] = system: MOLT-4
[29] = system: Malme-3M
[30] = system: NCI-H226
[31] = system: NCI-H23
[32] = system: NCI-H460
[33] = system: NCI-H522
[34] = system: NCI/ADR-RES
[35] = system: OVCAR-3
[36] = system: OVCAR-4
[37] = system: OVCAR-5
[38] = system: OVCAR-8
[39] = system: PC-3
[40] = system: RPMI-8226
[41] = system: RXF 393
[42] = system: SF-268
[43] = system: SF-295
[44] = system: SF-539
[45] = system: SK-MEL-28
[46] = system: SK-MEL-2
[47] = system: SK-MEL-5
[48] = system: SK-OV-3
[49] = system: SN12C
[50] = system: SNB-19
[51] = system: SR
[52] = system: SW-620
[53] = system: T47D
[54] = system: TK-10
[55] = system: U-251
[56] = system: UACC-257
[57] = system: UACC-62
[58] = system: UO-31
[59] = system: SNB-75

CCCC(c1cc(C(C)(C)C)c(O)cc1C)c1cc(C(C)(C)C)c(O)cc1C
GI50 [1]: 2.31 µM (inactive) | GI50 [2]: 2.05 µM (inactive) | GI50 [3]: 2.99 µM (inactive) | GI50 [4]: 2.67 µM (inactive) | GI50 [5]: 9.79 µM (inactive) | GI50 [6]: 4.3 µM (inactive) | GI50 [7]: 2.71 µM (inactive) | GI50 [8]: 2.33 µM (inactive) | GI50 [9]: 4.05 µM (inactive) | GI50 [10]: 2.88 µM (inactive) | GI50 [11]: 1.75 µM (inactive) | GI50 [12]: 1.91 µM (inactive) | GI50 [13]: 3.35 µM | GI50 [14]: 2.27 µM (inactive) | GI50 [15]: 3.05 µM (inactive) | GI50 [16]: 8.41 µM (inactive) | GI50 [17]: 6.65 µM (inactive) | GI50 [18]: 2.79 µM (inactive) | GI50 [19]: 4.04 µM (inactive) | GI50 [20]: 2.23 µM (inactive) | GI50 [21]: 3.32 µM (inactive) | GI50 [22]: 1.87 µM (inactive) | GI50 [23]: 2.09 µM (inactive) | GI50 [24]: 2.06 µM (inactive) | GI50 [25]: 3.56 µM (inactive) | GI50 [26]: 2.59 µM (inactive) | GI50 [27]: 1.87 µM (inactive) | GI50 [28]: 2.16 µM (inactive) | GI50 [29]: 3.05 µM (inactive) | GI50 [30]: 2.3 µM (inactive) | GI50 [31]: 2.65 µM (inactive) | GI50 [32]: 1.95 µM (inactive) | GI50 [33]: 2.33 µM (inactive) | GI50 [34]: 3.4 µM (inactive) | GI50 [35]: 1.81 µM (inactive) | GI50 [36]: 5.13 µM (inactive) | GI50 [37]: 2.13 µM (inactive) | GI50 [38]: 4.03 µM (inactive) | GI50 [39]: 3.29 µM (inactive) | GI50 [40]: 2.24 µM (inactive) | GI50 [41]: 1.99 µM (inactive) | GI50 [42]: 4.4 µM (inactive) | GI50 [43]: 2.4 µM (inactive) | GI50 [44]: 2.39 µM (inactive) | GI50 [45]: 3.48 µM (inactive) | GI50 [46]: 2.6 µM (inactive) | GI50 [47]: 1.77 µM (inactive) | GI50 [48]: 3.65 µM (inactive) | GI50 [49]: 1.94 µM (inactive) | GI50 [50]: 4.99 µM (inactive) | GI50 [51]: 2.26 µM (inactive) | GI50 [52]: 3.23 µM (inactive) | GI50 [53]: 2.56 µM (inactive) | GI50 [54]: 3.2 µM (inactive) | GI50 [55]: 2.65 µM (inactive) | GI50 [56]: 2.31 µM (inactive) | GI50 [57]: 2.09 µM (inactive) | GI50 [58]: 3.33 µM (inactive)

CCn1sc2ccccc2c1=O
GI50 [1]: 2.34 µM (inactive) | GI50 [2]: 37.8 µM (inactive) | GI50 [3]: 16.1 µM (inactive) | GI50 [4]: 7.62 µM (inactive) | GI50 [5]: 11.1 µM (inactive) | GI50 [6]: 3.43 µM (inactive) | GI50 [7]: 1.87 µM (inactive) | GI50 [8]: 9.55 µM (inactive) | GI50 [9]: 20.4 µM (inactive) | GI50 [10]: 17.1 µM (inactive) | GI50 [11]: 17.4 µM (inactive) | GI50 [12]: 14.8 µM (inactive) | GI50 [13]: 7.94 µM | GI50 [14]: 3.78 µM (inactive) | GI50 [15]: 14.7 µM (inactive) | GI50 [16]: 10.1 µM (inactive) | GI50 [17]: 14.4 µM (inactive) | GI50 [18]: 16.4 µM (inactive) | GI50 [19]: 6.73 µM (inactive) | GI50 [20]: 4.58 µM (inactive) | GI50 [21]: 6.89 µM (inactive) | GI50 [22]: 2.61 µM (inactive) | GI50 [23]: 4.97 µM (inactive) | GI50 [24]: 8.77 µM (inactive) | GI50 [25]: 9.57 µM (inactive) | GI50 [26]: 1.99 µM (inactive) | GI50 [27]: 4.05 µM (inactive) | GI50 [28]: 3.78 µM (inactive) | GI50 [29]: 15.8 µM (inactive) | GI50 [30]: 24.1 µM (inactive) | GI50 [31]: 13 µM (inactive) | GI50 [32]: 32.1 µM (inactive) | GI50 [33]: 1.6 µM (inactive) | GI50 [34]: 18.2 µM (inactive) | GI50 [35]: 12.9 µM (inactive) | GI50 [36]: 7.1 µM (inactive) | GI50 [37]: 9.1 µM (inactive) | GI50 [38]: 9.12 µM (inactive) | GI50 [39]: 14.3 µM (inactive) | GI50 [40]: 4.23 µM (inactive) | GI50 [41]: 4.81 µM (inactive) | GI50 [42]: 17.3 µM (inactive) | GI50 [43]: 29.1 µM (inactive) | GI50 [44]: 13.5 µM (inactive) | GI50 [45]: 18.1 µM (inactive) | GI50 [46]: 21.7 µM (inactive) | GI50 [47]: 9.84 µM (inactive) | GI50 [48]: 36 µM (inactive) | GI50 [49]: 5.32 µM (inactive) | GI50 [50]: 11.3 µM (inactive) | GI50 [59]: 13.7 µM (inactive) | GI50 [51]: 1.95 µM (inactive) | GI50 [52]: 6.35 µM (inactive) | GI50 [53]: 7.93 µM (inactive) | GI50 [54]: 16.5 µM (inactive) | GI50 [55]: 6 µM (inactive) | GI50 [56]: 14.8 µM (inactive) | GI50 [57]: 13.9 µM (inactive)
